Tests used:
[1] = compound: C1CC(C1)(C(=O)[O-])C(=O)[O-].N.N.[Pt+2] [Carboplatin]; settings: max 10 µM
Outline: (§1)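 After 24 hours at 37°C and 5% CO2 in 1536-well plates holding 7.5 μl of DMEM/F12 or RPMI with 10% FBS, cancer cell lines were dosed for 72 hours, with final DMSO typically 0.2%. Viability came from CellTiter-Glo 2.0 luminescence, scaled between the means of blank wells and DMSO wells. A non-linear mixed effects model fitted a two-parameter logistic curve to each dose response to give the single-agent IC50.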

[2] = compound: C1CN(CCC1(C(=O)N[C@@H](CCO)C2=CC=C(C=C2)Cl)N)C3=NC=NC4=C3C=CN4 [AZD5363]; settings: max 10 µM
Outline: as §1

[3] = compound: C=CCn1c(=O)c2cnc(Nc3ccc(N4CCN(C)CC4)cc3)nc2n1-c1cccc(C(C)(C)O)n1 [AZD1775]; settings: max 3 µM
Outline: as §1

[4] = compound: CC(=O)Nc1cccc(-n2c(=O)n(C3CC3)c(=O)c3c(Nc4ccc(I)cc4F)n(C)c(=O)c(C)c32)c1 [Trametinib]; settings: max 1 µM
Outline: as §1

[5] = compound: CC(=O)O[C@H]1C(=O)[C@@]2(C)[C@H]([C@H](OC(=O)c3ccccc3)[C@]3(O)C[C@H](OC(=O)[C@H](O)[C@@H](NC(=O)c4ccccc4)c4ccccc4)C(C)=C1C3(C)C)[C@]1(OC(C)=O)CO[C@@H]1C[C@@H]2O [Paclitaxel]; settings: max 3 µM
Outline: as §1

[6] = compound: CC(=O)c1c(C)c2cnc(Nc3ccc(N4CCNCC4)cn3)nc2n(C2CCCC2)c1=O [Palbociclib]; settings: max 10 µM
Outline: as §1

[7] = compound: CC(C)n1c(=O)n(C)c2cnc3cc(F)c(-c4ccc(OCCCN5CCCCC5)nc4)cc3c21 [AZD1390]; settings: max 0.3 µM
Outline: as §1

[8] = compound: CC1(C)CCC(CN2CCN(c3ccc(C(=O)NS(=O)(=O)c4ccc(NCC5CCOCC5)c([N+](=O)[O-])c4)c(Oc4cnc5[nH]ccc5c4)c3)CC2)=C(c2ccc(Cl)cc2)C1 [Venetoclax]; settings: max 1 µM
Outline: as §1

[9] = compound: CC1=C(C(=CC=C1)Cl)NC(=O)C2=CN=C(S2)NC3=CC(=NC(=N3)C)N4CCN(CC4)CCO [Dasatinib]; settings: max 2 µM
Outline: as §1

[10] = compound: CC1=CN2[C@@H](C1)C=NC3=CC(=C(C=C3C2=O)OC)OCCCCCOC4=C(C=C5C(=C4)N=C[C@@H]6CC(=CN6C5=O)C)OC [SG3199]; settings: max 0.001 µM
Outline: as §1

[11] = compound: CCN(CCO)CCCOc1ccc2c(Nc3cc(CC(=O)Nc4cccc(F)c4)[nH]n3)ncnc2c1 [AZD2811]; settings: max 1 µM
Outline: as §1

[12] = compound: CCc1c2c(nc3ccc(O)cc13)-c1cc3c(c(=O)n1C2)COC(=O)[C@]3(O)CC [SN-38]; settings: max 0.3 µM
Outline: as §1

[13] = compound: CN(C)CCCOc1ccc(-c2ccc3ncc4c(c3c2)n(C2CCOCC2)c(=O)n4C)cn1 [AZD0156]; settings: max 3 µM
Outline: as §1

[14] = compound: CN(CC[C@H](CSC1=CC=CC=C1)NC2=C(C=C(C=C2)S(=O)(=O)NC(=O)C3=CC=C(C=C3)N4CCC(CC4)[C@H](C5=CC=CC=C5C6=CC=C(C=C6)Cl)O)S(=O)(=O)C(F)(F)F)CCO [AZD4320]; settings: max 1 µM
Outline: as §1

[15] = compound: COc1cc(Nc2ncc3c(n2)-c2ccc(Cl)cc2C(c2c(F)cccc2OC)=NC3)ccc1C(=O)O [Alisertib]; settings: max 10 µM
Outline: as §1

[16] = compound: COc1cc([C@@H]2c3cc4c(cc3[C@@H](O[C@@H]3O[C@@H]5CO[C@@H](C)O[C@H]5[C@H](O)[C@H]3O)[C@H]3COC(=O)[C@H]23)OCO4)cc(OC)c1O [Etoposide]; settings: max 10 µM
Outline: as §1

[17] = compound: COc1cc2ncnc(Nc3ccc(F)c(Cl)c3)c2cc1OCCCN1CCOCC1 [Gefitinib]; settings: max 10 µM
Outline: as §1

[18] = compound: COc1cccc(OCCCN)c1-c1cc(Nc2cnc(C#N)cn2)n[nH]1 [Prexasertib]; settings: max 1 µM
Outline: as §1

[19] = compound: COc1cccc2c1C(=O)c1c(O)c3c(c(O)c1C2=O)C[C@@](O)(C(=O)CO)C[C@@H]3O[C@H]1C[C@H](N)[C@H](O)[C@H](C)O1 [Doxorubicin]; settings: max 1 µM
Outline: as §1

[20] = compound: COc1nnc2ccc(N3CCC(c4ccc(OCCN5CCN(C)C(=O)[C@H]5C)cc4)CC3)nn12 [AZD5153]; settings: max 1 µM
Outline: as §1

[21] = compound: CS(=O)(=O)CCNCc1ccc(-c2ccc3ncnc(Nc4ccc(OCc5cccc(F)c5)c(Cl)c4)c3c2)o1 [Lapatinib]; settings: max 10 µM
Outline: as §1

[22] = compound: C[C@@H](Nc1cc(F)cc(F)c1)c1cc(C(=O)N(C)C)cc2c(=O)cc(N3CCOCC3)oc12 [AZD8186]; settings: max 10 µM
Outline: as §1

[23] = compound: C[C@@H](Oc1cc(-c2cnn(C3CCNCC3)c2)cnc1N)c1c(Cl)ccc(F)c1Cl [Crizotinib]; settings: max 10 µM
Outline: as §1

[24] = compound: C[C@@H](c1ccc2nccn2c1)n1nnc2ncc(-c3cnn(C)c3)nc21 [Savolitinib]; settings: max 1 µM
Outline: as §1

[25] = compound: C[C@@H]1COCCN1C2=NC(=NC(=C2)C3(CC3)[S@](=N)(=O)C)C4=C5C=CNC5=NC=C4 [AZD6738]; settings: max 10 µM
Outline: as §1

[26] = compound: Cc1c2c(nn1C)CSCc1cc(n(C)n1)CSc1cc(c3ccccc3c1)OCCCc1c(C(=O)O)n(C)c3c-2c(Cl)ccc13 [AZD5991]; settings: max 1 µM
Outline: as §1

[27] = compound: Cc1cc2ncnn2cc1Nc1ncc2c(n1)n(C1CCOCC1)c(=O)n2C [AZD7648]; settings: max 10 µM
Outline: as §1

[28] = compound: Cc1nc(-c2cn3c(n2)-c2ccc(-c4cnn(C(C)(C)C(N)=O)c4)cc2OCC3)n(C(C)C)n1 [Taselisib]; settings: max 10 µM
Outline: as §1

[29] = compound: Cn1cnc2c(F)c(Nc3ccc(Br)cc3Cl)c(C(=O)NOCCO)cc21 [Selumetinib]; settings: max 10 µM
Outline: as §1

[30] = compound: N#Cc1cnc(Nc2cc(NC[C@H]3CNCCO3)c(C(F)(F)F)cn2)cn1 [SRA737]; settings: max 10 µM
Outline: as §1

[31] = compound: NC1(c2ccc(-c3nc4ccn5c(=O)[nH]nc5c4cc3-c3ccccc3)cc2)CCC1 [MK-2206]; settings: max 10 µM
Outline: as §1

[32] = compound: Nc1ccn([C@@H]2O[C@H](CO)[C@@H](O)C2(F)F)c(=O)n1 [Gemcitabine]; settings: max 0.3 µM
Outline: as §1

[33] = compound: O=C(Nc1ccc2[nH]nc(-c3ccncc3)c2c1)[C@@H]1CCN(CC(=O)N2CCN(c3ccc(-c4ncccn4)cc3)CC2)C1; settings: max 5 µM
Outline: as §1

[34] = compound: O=C(c1cc(Cc2n[nH]c(=O)c3ccccc23)ccc1F)N1CCN(C(=O)C2CC2)CC1 [Olaparib]; settings: max 10 µM
Outline: as §1

[35] = compound: O=c1[nH]cc(F)c(=O)[nH]1 [5-Fluorouracil]; settings: max 20 µM
Outline: as §1

Cell Line	IC50, cell viability 72 h [1]	IC50, cell viability 72 h [2]	IC50, cell viability 72 h [3]	IC50, cell viability 72 h [4]	IC50, cell viability 72 h [5]	IC50, cell viability 72 h [6]	IC50, cell viability 72 h [7]	IC50, cell viability 72 h [8]	IC50, cell viability 72 h [9]	IC50, cell viability 72 h [10]	IC50, cell viability 72 h [11]	IC50, cell viability 72 h [12]	IC50, cell viability 72 h [13]	IC50, cell viability 72 h [14]	IC50, cell viability 72 h [15]	IC50, cell viability 72 h [16]	IC50, cell viability 72 h [17]	IC50, cell viability 72 h [18]	IC50, cell viability 72 h [19]	IC50, cell viability 72 h [20]	IC50, cell viability 72 h [21]	IC50, cell viability 72 h [22]	IC50, cell viability 72 h [23]	IC50, cell viability 72 h [24]	IC50, cell viability 72 h [25]	IC50, cell viability 72 h [26]	IC50, cell viability 72 h [27]	IC50, cell viability 72 h [28]	IC50, cell viability 72 h [29]	IC50, cell viability 72 h [30]	IC50, cell viability 72 h [31]	IC50, cell viability 72 h [32]	IC50, cell viability 72 h [33]	IC50, cell viability 72 h [34]	IC50, cell viability 72 h [35]
D-392MG (Glioblastoma)	> 10 µM	> 10 µM	> 3 µM	> 1 µM	0.245 µM	> 10 µM	> 0.3 µM	> 1 µM	> 2 µM	> 0.001 µM	> 1 µM	> 0.3 µM	> 3 µM	> 1 µM	> 10 µM	> 10 µM	> 10 µM	0.775 µM	> 1 µM	> 1 µM	> 10 µM	> 10 µM	> 10 µM	> 1 µM	> 10 µM	> 1 µM	> 10 µM	> 10 µM	> 10 µM	> 10 µM	> 10 µM	> 0.3 µM	> 5 µM	> 10 µM	> 20 µM
SLVL (B-Cell Non-Hodgkin's Lymphoma)	> 10 µM	4.58 µM	0.836 µM	0.402 µM	0.00606 µM	> 10 µM	> 0.3 µM	> 1 µM	1.81 µM	> 0.001 µM	0.195 µM	0.00235 µM	> 3 µM	0.428 µM	0.148 µM	0.85 µM	> 10 µM	0.0199 µM	0.0768 µM	0.101 µM	> 10 µM	> 10 µM	7.08 µM	> 1 µM	3.76 µM	> 1 µM	> 10 µM	5.56 µM	9.51 µM	2.52 µM	> 10 µM	0.0151 µM	> 5 µM	> 10 µM	1.56 µM
WSU-DLCL2 (B-Cell Non-Hodgkin's Lymphoma)	> 10 µM	0.253 µM	0.531 µM	> 1 µM	0.00448 µM	7.44 µM	> 0.3 µM	> 1 µM	> 2 µM	> 0.001 µM	> 1 µM	0.00596 µM	2.15 µM	0.794 µM	1.64 µM	0.73 µM	> 10 µM	0.0188 µM	0.0539 µM	0.0559 µM	> 10 µM	5.81 µM	8.08 µM	> 1 µM	2.69 µM	0.137 µM	> 10 µM	2.7 µM	> 10 µM	> 10 µM	1.67 µM	0.0065 µM	> 5 µM	> 10 µM	> 20 µM
YT (Other Blood Carcinomas)	> 10 µM	> 10 µM	0.442 µM	> 1 µM	0.0465 µM	4.04 µM	> 0.3 µM	> 1 µM	> 2 µM	> 0.001 µM	> 1 µM	0.00413 µM	> 3 µM	> 1 µM	> 10 µM	0.374 µM	> 10 µM	0.0268 µM	0.511 µM	0.196 µM	> 10 µM	> 10 µM	8.37 µM	> 1 µM	3.17 µM	0.0494 µM	6.93 µM	1.79 µM	> 10 µM	4.81 µM	> 10 µM	0.0365 µM	> 5 µM	> 10 µM	0.808 µM
SK-MEL-1 (Melanoma)	> 10 µM	> 10 µM	> 3 µM	0.00525 µM	> 3 µM	> 10 µM	> 0.3 µM	> 1 µM	> 2 µM	> 0.001 µM	> 1 µM	0.135 µM	> 3 µM	> 1 µM	> 10 µM	> 10 µM	> 10 µM	0.659 µM	> 1 µM	> 1 µM	> 10 µM	> 10 µM	> 10 µM	> 1 µM	> 10 µM	> 1 µM	> 10 µM	> 10 µM	0.509 µM	> 10 µM	> 10 µM	> 0.3 µM	0.846 µM	> 10 µM	> 20 µM

— the supplement of paper PMC11061612
